The target of test [1] is T1, Angiopoietin-1 receptor (Homo sapiens, UniProt Q02763). Description: Binding affinity to human recombinant Tie2 by SPR assay. On the technique in general: Surface plasmon resonance follows binding to a sensor surface in real time, without labels.
The target of test [2] is T1, Angiopoietin-1 receptor. Nature of the test: Displacement of angiopoietin 1 from human recombinant Tie2 at 50 to 100 uM.
The target in test [3] is T1, Angiopoietin-1 receptor. Description: Displacement of angiopoietin 1 from human recombinant Tie2 at 25 to 100 uM.
The target in test [4] is T1, Angiopoietin-1 receptor. Nature of the test: Displacement of angiopoietin 2 from human recombinant Tie2 at 25 to 100 uM.

Calls of active or inactive are those of the source. No cut-off for these calls is given here.

T1 sequence (Q02763 whole entry): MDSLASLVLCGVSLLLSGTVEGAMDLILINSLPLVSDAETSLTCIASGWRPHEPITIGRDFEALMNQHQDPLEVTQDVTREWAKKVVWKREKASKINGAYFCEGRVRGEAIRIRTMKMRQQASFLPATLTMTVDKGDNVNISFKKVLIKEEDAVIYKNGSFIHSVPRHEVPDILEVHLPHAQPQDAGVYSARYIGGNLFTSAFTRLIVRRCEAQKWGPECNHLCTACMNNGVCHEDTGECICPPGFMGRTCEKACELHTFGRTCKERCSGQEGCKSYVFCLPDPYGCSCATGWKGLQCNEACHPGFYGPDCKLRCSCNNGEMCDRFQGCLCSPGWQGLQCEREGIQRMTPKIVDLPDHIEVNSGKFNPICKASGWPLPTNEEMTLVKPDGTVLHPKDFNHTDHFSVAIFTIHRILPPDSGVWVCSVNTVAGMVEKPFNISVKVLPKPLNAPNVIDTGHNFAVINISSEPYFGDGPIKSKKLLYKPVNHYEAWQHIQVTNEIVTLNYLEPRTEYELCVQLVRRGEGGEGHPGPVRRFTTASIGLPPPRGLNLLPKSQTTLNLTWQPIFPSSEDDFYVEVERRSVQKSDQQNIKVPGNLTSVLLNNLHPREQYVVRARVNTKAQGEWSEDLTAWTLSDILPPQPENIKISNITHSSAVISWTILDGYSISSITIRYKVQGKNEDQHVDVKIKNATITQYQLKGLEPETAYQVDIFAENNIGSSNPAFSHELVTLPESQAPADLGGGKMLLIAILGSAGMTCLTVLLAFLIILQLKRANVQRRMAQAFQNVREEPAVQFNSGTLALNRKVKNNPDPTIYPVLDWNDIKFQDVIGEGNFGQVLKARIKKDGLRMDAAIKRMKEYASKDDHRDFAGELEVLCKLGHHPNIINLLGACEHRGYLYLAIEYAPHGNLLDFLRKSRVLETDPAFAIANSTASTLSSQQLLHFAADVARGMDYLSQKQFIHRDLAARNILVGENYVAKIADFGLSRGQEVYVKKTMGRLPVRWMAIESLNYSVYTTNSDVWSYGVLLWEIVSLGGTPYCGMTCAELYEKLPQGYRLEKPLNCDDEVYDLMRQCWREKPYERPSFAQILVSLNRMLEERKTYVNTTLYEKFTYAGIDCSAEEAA

For `O=C(N[C@H](Cc1ccccc1F)C(=O)O)OCC1c2ccccc2-c2ccccc21`, the Kd (commonly the constant that tells how readily two partners part at equilibrium) at Angiopoietin-1 receptor [1] was determined as 120 µM. Also, on Angiopoietin-1 receptor [2], the outcome was Active.
With `CC1(C)S[C@@H]2[C@H](NC(=O)[C@H](N)c3ccccc3)C(=O)N2[C@H]1C(=O)O` [AMPICILLIN], at Angiopoietin-1 receptor [1], the Kd amounted to 82 µM. On Angiopoietin-1 receptor [2], the result was Active.
For the molecule `O=C(O)COCCN1CCN(C(c2ccccc2)c2ccc(Cl)cc2)CC1` (centres undefined) [CETIRIZINE], the equilibrium dissociation constant (Kd) on Angiopoietin-1 receptor [1] amounted to 90 µM. For the same molecule, the outcome on Angiopoietin-1 receptor [2] was Active.
Turning to `CN(C)C(=O)C(CCN1CCC(O)(c2ccc(Cl)cc2)CC1)(c1ccccc1)c1ccccc1` [LOPERAMIDE], the Kd at Angiopoietin-1 receptor [1] was 5.9 µM. In addition, the outcome on Angiopoietin-1 receptor [3] and on Angiopoietin-1 receptor [4] was Active.

Values taken from ChEMBL document CHEMBL2010691, “Discovery of loperamide as an antagonist of angiopoietin1 and angiopoietin2 by virtual screening” (Bioorg Med Chem Lett, 2012).
